Reference: US7256185B1, “Control of selective estrogen receptor modulators” (Eastern Virginia Medical School, priority 1997, dated 2007)
Where two headings read alike, the source gives them in different places.

Procedure: 1. Clomiphene is used alone at 100 mg/day for the treatment of endometriosis. […] Levonorgestrel at 75 mcg/day is then also administered.
2. Raloxifene at 500 mg/day and medroxprogesterone acetate at 12 mg/day were administrated to treat leiomyoma.
5. Clomiphene is used alone at 100 mg/day for the treatment of endometriosis. […] Danazol at 100 to 800 mg/day is then also administered.

[1] = clomiphene ZU isomer 50 mg/day and norgestimate 100 mcg/day coadministered
[2] = raloxifene 500 mg/day and medroxprogesterone acetate 12 mg/day administered together, leiomyoma

| SMILES | serum estrogen [1] | serum estrogen [2] | other results |
| --- | --- | --- | --- |
| C#C[C@]1(OC(C)=O)CC[C@H]2[C@@H]3CCC4=CC(=NO)CC[C@@H]4[C@H]3CC[C@@]21CC (mixture of isomers) [norgestimate] | remained at physiological levels | – | – |
| CCN(CC)CCOc1ccc(/C(=C(\Cl)c2ccccc2)c2ccccc2)cc1 (single isomer, unassigned) [Clomiphene ZU isomer] | remained at physiological levels | – | – |
| C#C[C@]1(O)CC[C@H]2[C@@H]3CCC4=Cc5oncc5C[C@]4(C)[C@H]3CC[C@@]21C [Danazol, danazol] | – | – | serum estrogen (danazol 100 to 800 mg/day added to clomiphene 100 mg/day after serum estrogen reached 500 pg/ml, endometriosis): retreated to physiological value |
| O=C(c1ccc(OCCN2CCCCC2)cc1)c1c(-c2ccc(O)cc2)sc2cc(O)ccc12 [Raloxifene] | – | remained at physiological levels | – |
| CC(=O)O[C@]1(C(C)=O)CC[C@H]2[C@@H]3C[C@H](C)C4=CC(=O)CC[C@]4(C)[C@H]3CC[C@@]21C [medroxprogesterone acetate] | – | remained at physiological levels | – |
